# Measured values as given in the supplement of paper PMC11451515.
# Columns and labels:
# Conditions in all cases: 48 h
# [1] = system: P12-Ichikawa; experiment: cell viability relative to DMSO control; higher = less cytotoxic
# In short: (§1)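 Cells were incubated for 48 h at 37°C before CellTiter-Glo One luminescence was read. The cells were NOMO1 or SEM (500 cells/well) or P12-Ichikawa (1000 cells/well) leukemia cells, adapted for at least four passages in each medium and seeded in 1536-well plates (5 μl). Dosing used library compounds in DMSO applied by pin over 11 threefold points, 47 μM to 0.79 nM. Viability is the per-plate percentage of DMSO wells, with cell-free wells as background.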
# [2] = system: SEM cells; experiment: as above
# In short: as §1
# [3] = system: NOMO1; experiment: as above
# In short: as §1
# [4] = system: P12-Ichikawa; experiment: AUC of viability dose-response curve (% viability x log10 dose units); higher = less sensitive
# In short: (§2)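 In 1536-well plates, leukemia cells adapted to each medium (500 or 1000 cells/well) were exposed for 48 h at 37°C to library compounds in DMSO across 11 threefold doses, 47 μM down to 0.79 nM. Viability was read by CellTiter-Glo One luminescence and normalised per plate to DMSO and cell-free wells. A four-parameter log-logistic fit over log10 doses was integrated by trapezoidal rule. This yielded the area under the curve, with over-full-viability curves scaled and quality-control failures dropped.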
# [5] = system: SEM cells; experiment: as above
# In short: as §2
# [6] = system: NOMO1; experiment: as above
# In short: as §2
# [7] = HPLM + 10% dialyzed FBS, 0.000781 µM
# [8] = HPLM + 10% dialyzed FBS, 0.00234 µM
# [9] = HPLM + 10% dialyzed FBS, 0.00702 µM
# [10] = HPLM + 10% dialyzed FBS, 0.0211 µM
# [11] = HPLM + 10% dialyzed FBS, 0.0632 µM
# [12] = HPLM + 10% dialyzed FBS, 0.19 µM
# [13] = HPLM + 10% dialyzed FBS, 0.569 µM
# [14] = HPLM + 10% dialyzed FBS, 1.71 µM
# [15] = HPLM + 10% dialyzed FBS, 5.12 µM
# [16] = HPLM + 10% dialyzed FBS, 15.4 µM
# [17] = HPLM + 10% dialyzed FBS, 46.1 µM
# [18] = RPMI 5 mM glucose + 10% FBS, 0.000781 µM
# [19] = RPMI 5 mM glucose + 10% FBS, 0.00234 µM
# [20] = RPMI 5 mM glucose + 10% FBS, 0.00702 µM
# [21] = RPMI 5 mM glucose + 10% FBS, 0.0211 µM
# [22] = RPMI 5 mM glucose + 10% FBS, 0.0632 µM
# [23] = RPMI 5 mM glucose + 10% FBS, 0.19 µM
# [24] = RPMI 5 mM glucose + 10% FBS, 0.569 µM
# [25] = RPMI 5 mM glucose + 10% FBS, 1.71 µM
# [26] = RPMI 5 mM glucose + 10% FBS, 5.12 µM
# [27] = RPMI 5 mM glucose + 10% FBS, 15.4 µM
# [28] = RPMI 5 mM glucose + 10% FBS, 46.1 µM
# [29] = RPMI 5 mM glucose + 10% dialyzed FBS, 0.000781 µM
# [30] = RPMI 5 mM glucose + 10% dialyzed FBS, 0.00234 µM
# [31] = RPMI 5 mM glucose + 10% dialyzed FBS, 0.00702 µM
# [32] = RPMI 5 mM glucose + 10% dialyzed FBS, 0.0211 µM
# [33] = RPMI 5 mM glucose + 10% dialyzed FBS, 0.0632 µM
# [34] = RPMI 5 mM glucose + 10% dialyzed FBS, 0.19 µM
# [35] = RPMI 5 mM glucose + 10% dialyzed FBS, 0.569 µM
# [36] = RPMI 5 mM glucose + 10% dialyzed FBS, 1.71 µM
# [37] = RPMI 5 mM glucose + 10% dialyzed FBS, 5.12 µM
# [38] = RPMI 5 mM glucose + 10% dialyzed FBS, 15.4 µM
# [39] = RPMI 5 mM glucose + 10% dialyzed FBS, 46.1 µM
# [40] = RPMI 5 mM glucose + 10% dialyzed FBS
smiles,measurement,setting,value
COc1cc(O)c2c(c1)C1OC1C[C@H](O)[C@H](O)C(=O)/C=C\C[C@H](C)OC2=O (stereo partly drawn),cell viability,[1]; [7],99.6%
same,cell viability,[1]; [8],112%
same,cell viability,[1]; [9],114%
same,cell viability,[1]; [10],110%
same,cell viability,[1]; [11],110%
same,cell viability,[1]; [12],120%
same,cell viability,[1]; [13],112%
same,cell viability,[1]; [14],112%
same,cell viability,[1]; [15],112%
same,cell viability,[1]; [16],81.5%
same,cell viability,[1]; [17],11.3%
same,cell viability,[1]; [18],113%
same,cell viability,[1]; [19],112%
same,cell viability,[1]; [20],118%
same,cell viability,[1]; [21],110%
same,cell viability,[1]; [22],115%
same,cell viability,[1]; [23],114%
same,cell viability,[1]; [24],116%
same,cell viability,[1]; [25],125%
same,cell viability,[1]; [26],117%
same,cell viability,[1]; [27],80.5%
same,cell viability,[1]; [28],13.5%
same,cell viability,[1]; [29],96.5%
same,cell viability,[1]; [30],117%
same,cell viability,[1]; [31],116%
same,cell viability,[1]; [32],118%
same,cell viability,[1]; [33],114%
same,cell viability,[1]; [34],135%
same,cell viability,[1]; [35],124%
same,cell viability,[1]; [36],123%
same,cell viability,[1]; [37],132%
same,cell viability,[1]; [38],85.1%
same,cell viability,[1]; [39],14.3%
same,cell viability,[2]; [7],95.5%
same,cell viability,[2]; [8],93.1%
same,cell viability,[2]; [9],111%
same,cell viability,[2]; [10],108%
same,cell viability,[2]; [11],125%
same,cell viability,[2]; [12],125%
same,cell viability,[2]; [13],101%
same,cell viability,[2]; [14],114%
same,cell viability,[2]; [15],55.5%
same,cell viability,[2]; [16],31.4%
same,cell viability,[2]; [17],7.96%
same,cell viability,[2]; [18],101%
same,cell viability,[2]; [19],103%
same,cell viability,[2]; [20],108%
same,cell viability,[2]; [21],86.9%
same,cell viability,[2]; [22],114%
same,cell viability,[2]; [23],108%
same,cell viability,[2]; [24],117%
same,cell viability,[2]; [25],101%
same,cell viability,[2]; [26],58%
same,cell viability,[2]; [27],30.7%
same,cell viability,[2]; [28],4.26%
same,cell viability,[2]; [29],101%
same,cell viability,[2]; [30],119%
same,cell viability,[2]; [31],117%
same,cell viability,[2]; [32],127%
same,cell viability,[2]; [33],109%
same,cell viability,[2]; [34],121%
same,cell viability,[2]; [35],102%
same,cell viability,[2]; [36],110%
same,cell viability,[2]; [37],47.6%
same,cell viability,[2]; [38],24.4%
same,cell viability,[2]; [39],5.3%
same,cell viability,[3]; [7],92.7%
same,cell viability,[3]; [8],118%
same,cell viability,[3]; [9],104%
same,cell viability,[3]; [10],111%
same,cell viability,[3]; [11],126%
same,cell viability,[3]; [12],120%
same,cell viability,[3]; [13],122%
same,cell viability,[3]; [14],125%
same,cell viability,[3]; [15],108%
same,cell viability,[3]; [16],31.3%
same,cell viability,[3]; [17],12.5%
same,cell viability,[3]; [18],109%
same,cell viability,[3]; [19],99.9%
same,cell viability,[3]; [20],99%
same,cell viability,[3]; [21],120%
same,cell viability,[3]; [22],105%
same,cell viability,[3]; [23],96.7%
same,cell viability,[3]; [24],121%
same,cell viability,[3]; [25],103%
same,cell viability,[3]; [26],97.8%
same,cell viability,[3]; [27],50.4%
same,cell viability,[3]; [28],13.7%
same,cell viability,[3]; [29],93.5%
same,cell viability,[3]; [30],98%
same,cell viability,[3]; [31],105%
same,cell viability,[3]; [32],109%
same,cell viability,[3]; [33],110%
same,cell viability,[3]; [34],114%
same,cell viability,[3]; [35],113%
same,cell viability,[3]; [36],100%
same,cell viability,[3]; [37],94.7%
same,cell viability,[3]; [38],50.7%
same,cell viability,[3]; [39],17.5%
same,AUC of viability dose-response curve,[4]; HPLM + 10% dialyzed FBS,443
same,AUC of viability dose-response curve,[4]; RPMI 5 mM glucose + 10% FBS,441
same,AUC of viability dose-response curve,[4]; [40],442
same,AUC of viability dose-response curve,[5]; HPLM + 10% dialyzed FBS,394
same,AUC of viability dose-response curve,[5]; RPMI 5 mM glucose + 10% FBS,394
same,AUC of viability dose-response curve,[5]; [40],384
same,AUC of viability dose-response curve,[6]; HPLM + 10% dialyzed FBS,418
same,AUC of viability dose-response curve,[6]; RPMI 5 mM glucose + 10% FBS,427
same,AUC of viability dose-response curve,[6]; [40],427
